Assays:
[1] = Half life in Cynomolgus monkey at 0.5 mg/kg, iv by LC/MS/MS analysis; assay type: ADME, organism-based, Macaca fascicularis; settings: in vivo
Canis familiaris [2] = experiment: In vivo inhibition of BACE1 in Beagle dog assessed as reduction in amyloidbeta42 level in CSF at 0.08 mg/kg, po administered as single dose measured after 4 to 49 hrs relative to control; assay type: functional; settings: Canis lupus familiaris
Canis familiaris [3] = experiment: In vivo inhibition of BACE1 in po dosed Beagle dog assessed as reduction in amyloidbeta42 level in CSF measured after 4 to 49 hrs; assay type: functional, organism-based; settings: Canis lupus familiaris
[4] = Clearance in Sprague-Dawley rat at 0.5 mg/kg, iv by LC/MS/MS analysis; assay type: ADME, organism-based; settings: in vivo
[5] = Toxicity in anesthetized dog assessed as induction of adverse effect at 0.08 to 2.5 mg/kg, iv administered for 5 mins measured after 5 to 30 mins; assay type: organism-based, Canis lupus familiaris; settings: in vivo
Mus musculus [6] = experiment: In vivo inhibition of BACE1 in Crl:CD1(ICR) mouse assessed as reduction in amyloidbeta level in brain at 3 mg/kg, po after 2 to 6 hrs by ELISA relative to control; assay type: functional
[7] = AUC (0 to 24 hrs) in Sprague-Dawley rat at 250 mg/kg/day administered as suspension for 2 weeks; assay type: ADME, organism-based; design: dose 250 mg/kg/day, time < 24 hr; settings: in vivo
[8] = Cmax in dog at 2.5 mg/kg, po; assay type: ADME, organism-based, Canis lupus familiaris; design: dose 2.5 mg/kg, route oral; settings: in vivo
[9] = Fraction unbound in rat plasma after 24 hrs by equilibrium dialysis based LC-MS/MS analysis; assay type: ADME, cell-free
[10] = Oral bioavailability in Sprague-Dawley rat at 2.5 mg/kg by LC/MS/MS analysis; assay type: ADME, organism-based; settings: in vivo
[11] = Free drug level in Crl:CD1(ICR) mouse brain at 1 mg/kg, po after 2 to 6 hrs; assay type: ADME, organism-based; settings: in vivo
[12] = Toxicity in po dosed Beagle dog assessed as induction of adverse effect administered for 2 weeks; assay type: organism-based, Canis lupus familiaris; settings: in vivo
[13] = Metabolic stability in human hepatocytes at 2 uM incubated for 2 hr; assay type: ADME, cell-based, Hepatocyte; settings: read-out: Stability
[14] = Drug level in Crl:CD1(ICR) mouse brain at 3 mg/kg, po at 6 hrs; assay type: ADME, organism-based; settings: read-out: Drug uptake
[15] = Unbound brain-to-plasma concentration ratio in Sprague-Dawley rat at 0.5 mg/kg, iv after 30 mins by LC-MS/MS analysis; assay type: ADME, organism-based; settings: brain and plasma, read-out: K(p,uu,brain)
Beta-secretase 2 = biological target: T1, Beta-secretase 2 (Homo sapiens, UniProt Q9Y5Z0); experiment: Inhibition of BACE2 (unknown origin) by HTRF assay
T1 sequence (Q9Y5Z0 whole entry): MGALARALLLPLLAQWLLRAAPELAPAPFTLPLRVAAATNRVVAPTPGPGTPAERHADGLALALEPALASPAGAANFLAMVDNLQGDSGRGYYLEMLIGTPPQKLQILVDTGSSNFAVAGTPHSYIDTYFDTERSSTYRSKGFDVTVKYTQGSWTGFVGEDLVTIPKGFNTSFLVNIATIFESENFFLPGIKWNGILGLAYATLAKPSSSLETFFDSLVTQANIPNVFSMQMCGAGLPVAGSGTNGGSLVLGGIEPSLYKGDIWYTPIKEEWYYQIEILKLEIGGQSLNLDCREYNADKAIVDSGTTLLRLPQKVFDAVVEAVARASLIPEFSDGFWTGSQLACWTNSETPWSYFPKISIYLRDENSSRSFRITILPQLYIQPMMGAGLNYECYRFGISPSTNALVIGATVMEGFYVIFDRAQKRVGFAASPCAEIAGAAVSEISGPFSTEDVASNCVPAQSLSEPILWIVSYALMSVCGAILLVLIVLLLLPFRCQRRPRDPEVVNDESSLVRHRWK

[16] = Unbound CSF to plasma concentration ratio in Beagle dog at 0.08 to […], po measured up to 49 hrs; assay type: ADME, organism-based, Canis lupus familiaris; settings: CSF and plasma
[17] = AUC in mouse at 2.5 mg/kg, po; assay type: ADME, organism-based; settings: in vivo
[18] = Oral bioavailability in Sprague-Dawley rat at 1 mg/kg by LC/MS/MS analysis; assay type: ADME, organism-based; settings: in vivo
[19] = Volume of distribution at steady state in Sprague-Dawley rat at 0.5 mg/kg, iv by LC/MS/MS analysis; assay type: ADME, organism-based; settings: in vivo, read-out: Vdss
Canis familiaris [20] = experiment: In vivo inhibition of BACE1 in Beagle dog assessed as reduction in amyloidbeta42 level in CSF at 1.25 mg/kg, po administered as single dose measured after 4 to 49 hrs relative to control; assay type: functional; settings: Canis lupus familiaris
[21] = Cmax in Cynomolgus monkey at 2.5 mg/kg, po by LC/MS/MS analysis; assay type: ADME, organism-based, Macaca fascicularis; design: dose 2.5 mg/kg, route oral; settings: in vivo
[22] = Tmax in dog at 2.5 mg/kg, po; assay type: ADME, organism-based, Canis lupus familiaris; settings: in vivo
Canis familiaris [23] = experiment: In vivo inhibition of BACE1 in po dosed Beagle dog assessed as plasma level causing 50% reduction in amyloidbeta42 level in CSF administered as single dose measured after 4 to 49 hrs; assay type: functional, organism-based; settings: Canis lupus familiaris
[24] = AUC in dog at 2.5 mg/kg, po; assay type: ADME, organism-based, Canis lupus familiaris; settings: in vivo
Canis familiaris [25] = experiment: In vivo inhibition of BACE1 in po dosed Beagle dog assessed as plasma level causing 80% reduction in amyloidbeta42 level in CSF administered as single dose measured after 4 to 49 hrs; assay type: functional, Canis lupus familiaris
[26] = Cmax in mouse at 2.5 mg/kg, po; assay type: ADME, organism-based; design: dose 2.5 mg/kg, route oral; settings: in vivo
[27] = Half life in Sprague-Dawley rat at 0.5 mg/kg, iv by LC/MS/MS analysis; assay type: ADME, organism-based; settings: in vivo
Mus musculus [28] = experiment: In vivo inhibition of BACE1 in po dosed Crl:CD1(ICR) mouse assessed as reduction in amyloidbeta level in brain after 2 to 6 hrs by ELISA; assay type: functional, organism-based
[29] = Clearance in dog at 0.5 mg/kg, iv; assay type: ADME, organism-based, Canis lupus familiaris; settings: in vivo
[30] = Oral bioavailability in dog at 2.5 mg/kg; assay type: ADME, organism-based, Canis lupus familiaris; settings: in vivo
[31] = Toxicity in po dosed Sprague-Dawley rat administered as suspension for 2 weeks; assay type: organism-based; settings: in vivo

With `C[C@H]1SC(N)=N[C@](C)(c2cc(NC(=O)c3cnc(OCF)cn3)ccc2F)[C@H]1F` the half-life [1] was 4.9 h, the inhibition in vivo at 0.08 mg/kg (Canis familiaris [2]) was 50% and the inhibition (Canis familiaris [3]) was “Dose-dependent effect”. The clearance [4] was 24.8 to 27 mL/min/kg, the NOAEL [5] was > 6.9 µg/mL and the fNOAEL [5] was 1.3 µM. For the same compound, the inhibition in vivo at 3 mg/kg (Mus musculus [6]) was 90%, the AUC at 24 h [7] was 68000 ng·h/mL and the Cmax [8] was 685 ng/mL. For the same compound, the fraction unbound at 24 h [9] was 0.12, the bioavailability [10] was 38% and the “Drug uptake(free)” value [11] was 3 nM. The NOAEL at 336 h [12] was 6 mg/kg/day, the remaining at 2 h, 2 µM [13] was 89% and the concentration at 6 h [14] was 611 nM. For the same compound, the Kp uu at 0.5 h [15] was 0.95, the IC50 (Beta-secretase 2) was 7.1 nM and the Kp uu at 49 h [16] was 0.77. The AUC [17] was 596 ng·h/mL, the bioavailability [18] was 31% and the Vd [19] was 5 L/kg. The inhibition in vivo at 1.25 mg/kg (Canis familiaris [20]) was 80%, the Cmax [21] was 54 ng/mL and the Tmax [22] was 1.8 h. The EC50 (Canis familiaris [23]) was 21 nM, the AUC [24] was 10400 ng·h/mL and the EC80 (Canis familiaris [25]) was 100 nM. For the same compound, the Cmax [26] was 195 ng/mL, the half-life [27] was 2.2 h and the inhibition (Mus musculus [28]) was “Dose-dependent effect”. For the same compound, the clearance [29] was 2.6 mL/min/kg, the bioavailability [30] was 95% and the NOAEL at 336 h [31] was 250 mg/kg/day.

Reference: ChEMBL document CHEMBL4321815, “Discovery of an Extremely Potent Thiazine-Based β-Secretase Inhibitor with Reduced Cardiovascular and Liver Toxicity at a Low Projected Human Dose” (J Med Chem, 2019)
